In PubChem BioAssay AID1963432 (Molecular Pharmacology Branch, DTP, NCI, 2024):
Where “and” joins values, the source holds several entries; their conditions need not be identical. Equal entries are not always repeated. Values belong to the compound of their own block, whether it stands above or below them.

Test system: SYO-1 complex spheroid growth, percent test/control
Assay: Anticancer human tumor SYO-1 cell line growth inhibition [Asc];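 note: compound exposure lasted 7 days after spheroids grew 3 days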;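 for viability, T/C: 100% = DMSO vehicle control viability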
Settings: for viability, T/C: stronger effect = lower value
In short: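 Tumor cells were grown as multicellular spheroids with stromal HUVEC and mesenchymal stem cells and treated singly or in combination. Concentrations fell in half-log steps from the clinical Cmax, or from 10 microM where none was known.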

- IC50 (curve of first compound, second compound 0.00949 µM): > 1 µM
- IC50 (curve of first compound, second compound 0.03 µM): > 1 µM
- IC50 (curve of first compound, second compound 0.0949 µM): > 1 µM
- IC50 (curve of first compound, second compound 0.3 µM): < 0.00316 µM
- IC50 (curve of first compound, second compound 0.949 µM): < 0.00316 µM
- IC50 (curve of first compound, second compound 3 µM): < 0.00316 µM
Compound: CNC(C)C(=O)NC1CN(S(=O)(=O)c2cccc(S(=O)(=O)N3CCC4CCC(C(=O)NC(c5ccccc5)c5ccccc5)N4C(=O)C(NC(=O)C(C)NC)C3)c2)CCC2CCC(C(=O)NC(c3ccccc3)c3ccccc3)N2C1=O (centres undefined) + CCN1C(C(=O)NC23CCC(C(=O)O)(CC2)CC3)C(c2cccc(Cl)c2F)C2(C(=O)Nc3cc(Cl)ccc32)C12CCCCC2
- viability, T/C (second compound 0.00949 µM, first compound 0.00316 µM): 109%
- viability, T/C (second compound 0.00949 µM, first compound 0.01 µM): 104%
- viability, T/C (second compound 0.00949 µM, first compound 0.0316 µM): 104%
- viability, T/C (second compound 0.00949 µM, first compound 0.1 µM): 112%
- viability, T/C (second compound 0.00949 µM, first compound 0.316 µM): 113%
- viability, T/C (second compound 0.00949 µM, first compound 1 µM): 98.7%
- viability, T/C (second compound 0.03 µM, first compound 0.00316 µM): 99.2%
- viability, T/C (second compound 0.03 µM, first compound 0.01 µM): 99.9%
- viability, T/C (second compound 0.03 µM, first compound 0.0316 µM): 99.2%
- viability, T/C (second compound 0.03 µM, first compound 0.1 µM): 105%
- viability, T/C (second compound 0.03 µM, first compound 0.316 µM): 101%
- viability, T/C (second compound 0.03 µM, first compound 1 µM): 96.6%
- viability, T/C (second compound 0.0949 µM, first compound 0.00316 µM): 85.7%
- viability, T/C (second compound 0.0949 µM, first compound 0.01 µM): 82.6%
- viability, T/C (second compound 0.0949 µM, first compound 0.0316 µM): 76.7%
- viability, T/C (second compound 0.0949 µM, first compound 0.1 µM): 75.3%
- viability, T/C (second compound 0.0949 µM, first compound 0.316 µM): 81.2%
- viability, T/C (second compound 0.0949 µM, first compound 1 µM): 70.6%
- viability, T/C (second compound 0.3 µM, first compound 0.00316 µM): 26.2%
- viability, T/C (second compound 0.3 µM, first compound 0.01 µM): 20%
- viability, T/C (second compound 0.3 µM, first compound 0.0316 µM): 16.1%
- viability, T/C (second compound 0.3 µM, first compound 0.1 µM): 15.6%
- viability, T/C (second compound 0.3 µM, first compound 0.316 µM): 16%
- viability, T/C (second compound 0.3 µM, first compound 1 µM): 13.4%
- viability, T/C (second compound 0.949 µM, first compound 0.00316 µM): 4.14%
- viability, T/C (second compound 0.949 µM, first compound 0.01 µM): 1.95%
- viability, T/C (second compound 0.949 µM, first compound 0.0316 µM): 1.29%
- viability, T/C (second compound 0.949 µM, first compound 0.1 µM): 1.74%
- viability, T/C (second compound 0.949 µM, first compound 0.316 µM): 0.96%
- viability, T/C (second compound 0.949 µM, first compound 1 µM): 0.61%
- viability, T/C (second compound 3 µM, first compound 0.00316 µM): 1.42%
- viability, T/C (second compound 3 µM, first compound 0.01 µM): 1.29%
- viability, T/C (second compound 3 µM, first compound 0.0316 µM): 0.76%
- viability, T/C (second compound 3 µM, first compound 0.1 µM): 1.16%
- viability, T/C (second compound 3 µM, first compound 0.316 µM): 0.78%
- viability, T/C (second compound 3 µM, first compound 1 µM): 0.82%

- IC50 (curve of compound): > 3 µM
Compound: Cc1nc(N2CCC3(CC2)COC(C)C3N)c(CO)nc1Sc1ccnc(N)c1Cl (centres undefined)
- viability, T/C (compound 0.00949 µM): 107% and 98.7% and 112%
- viability, T/C (compound 0.03 µM): 112% and 94% and 111%
- viability, T/C (compound 0.0949 µM): 107% and 116% and 103%
- viability, T/C (compound 0.3 µM): 108% and 109% (2×)
- viability, T/C (compound 0.949 µM): 112% and 114% and 107%
- viability, T/C (compound 3 µM): 103% and 100% and 109%
